From patent publication US11485742B2, “2-azaspiro[3.4]octane derivatives as M4 agonists” (NOVARTIS AG, priority 2019, dated 2022)

Columns and labels:
[1] = biological target: T1, human cloned CHRM3 receptor (Homo sapiens, UniProt P20309); assay: CHRM3 Ca++ Flux Assay (M3_CHO cells, agonist mode); format: cell-based; settings: for Emax: Percent Activity (PA) measured to EC100 of Carbachol, read-out: M3 FDSS PA %; for EC50: agonist mode, geometric mean if tested more than once, read-out: M3 FDSS EC50
T1 construct: expressed in transfected cells; host or cells: CHO-K1 (M3_CHO)
Outline: (§1)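 Agonist-mode calcium mobilisation: compounds, 11 concentrations in triplicate, applied to stable M3_CHO or M5_CHO cells loaded with Ca++ dye, fluorescence followed 3 min. Efficacy expressed against carbachol EC100; EC curves by four-parameter nonlinear regression, geometric mean across independent runs.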

[2] = biological target: T2, human cloned CHRM5 receptor (Homo sapiens, UniProt P08912); assay: CHRM5 Ca++ Flux Assay (M5_CHO cells, agonist mode); format: cell-based; settings: for Emax: Percent Activity (PA) measured to EC100 of Carbachol, read-out: M5 FDSS PA %; for EC50: agonist mode, geometric mean if tested more than once, read-out: M5 FDSS EC50
T2 construct: expressed in transfected cells; host or cells: CHO (M5_CHO)
T2 sequence (P08912 1-532): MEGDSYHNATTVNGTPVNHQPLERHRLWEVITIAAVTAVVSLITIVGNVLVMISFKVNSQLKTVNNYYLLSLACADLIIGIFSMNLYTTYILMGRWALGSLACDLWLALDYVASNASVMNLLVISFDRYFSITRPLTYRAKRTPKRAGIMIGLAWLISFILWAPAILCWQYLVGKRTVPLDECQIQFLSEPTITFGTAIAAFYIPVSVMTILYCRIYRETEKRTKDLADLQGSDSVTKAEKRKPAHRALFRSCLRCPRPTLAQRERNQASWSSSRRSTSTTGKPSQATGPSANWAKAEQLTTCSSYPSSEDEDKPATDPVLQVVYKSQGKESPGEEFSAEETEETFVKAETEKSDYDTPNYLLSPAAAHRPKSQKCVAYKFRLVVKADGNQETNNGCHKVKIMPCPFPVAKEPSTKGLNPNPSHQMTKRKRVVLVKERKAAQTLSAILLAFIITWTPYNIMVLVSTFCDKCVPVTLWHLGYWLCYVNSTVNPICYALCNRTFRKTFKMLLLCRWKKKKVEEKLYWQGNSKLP
Outline: as §1

T1 sequence (P20309 whole entry): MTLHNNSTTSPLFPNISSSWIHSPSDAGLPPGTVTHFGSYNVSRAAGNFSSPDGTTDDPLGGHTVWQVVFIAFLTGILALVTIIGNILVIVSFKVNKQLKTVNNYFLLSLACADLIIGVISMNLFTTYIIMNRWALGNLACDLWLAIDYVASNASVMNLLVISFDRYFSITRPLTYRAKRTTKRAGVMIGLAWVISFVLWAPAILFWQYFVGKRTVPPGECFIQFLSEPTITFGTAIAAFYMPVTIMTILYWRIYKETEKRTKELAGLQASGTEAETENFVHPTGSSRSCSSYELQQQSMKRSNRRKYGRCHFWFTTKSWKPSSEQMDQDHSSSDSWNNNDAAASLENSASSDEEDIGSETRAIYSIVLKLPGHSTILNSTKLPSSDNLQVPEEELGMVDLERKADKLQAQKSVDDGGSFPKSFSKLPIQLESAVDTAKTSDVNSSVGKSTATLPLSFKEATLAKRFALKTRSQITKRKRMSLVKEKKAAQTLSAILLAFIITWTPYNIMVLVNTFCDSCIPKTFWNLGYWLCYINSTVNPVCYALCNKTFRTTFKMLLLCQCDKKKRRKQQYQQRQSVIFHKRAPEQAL

SMILES	Emax [1] [%]	EC50 [1] [µM]	Emax [2] [%]	EC50 [2] [µM]
c1ccc(C2CCN([C@@H]3COC4(C3)CN(c3nnco3)C4)CC2)c(OC2COC2)c1 [Example 1P, (S)-2-(1,3,4-oxadiazol-2-yl)-7-(4-(2-(oxetan-3-yloxy)phenyl)piperidin-1-yl)-5-oxa-2-azaspiro[3.4]octane]	0	> 25	0	> 25
Fc1ccc(OCC2CCOCC2)c(C2CCN([C@@H]3COC4(C3)CN(c3nnco3)C4)CC2)c1 [Example 1J, (S)-7-(4-(5-fluoro-2-((tetrahydro-2H-pyran-4-yl)methoxy)phenyl)piperidin-1-yl)-2-(1,3,4-oxadiazol-2-yl)-5-oxa-2-azaspiro[3.4]octane]	0	> 25	0	> 25
COCCOc1ccc(F)cc1C1CCN([C@@H]2COC3(C2)CN(c2nnco2)C3)CC1 [Example 1L, (S)-7-(4-(5-fluoro-2-(2-methoxyethoxy)phenyl)piperidin-1-yl)-2-(1,3,4-oxadiazol-2-yl)-5-oxa-2-azaspiro[3.4]octane]	0	> 25	0	> 25
COc1cc(F)ccc1C1CCN([C@@H]2COC3(C2)CN(c2nnco2)C3)CC1 [Example 1S, (S)-7-(4-(4-fluoro-2-methoxyphenyl)piperidin-1-yl)-2-(1,3,4-oxadiazol-2-yl)-5-oxa-2-azaspiro[3.4]octane]	0	> 25	0	> 25
Cc1nnc(-c2ccccc2C2CCN([C@@H]3COC4(C3)CN(c3nnco3)C4)CC2)o1 [Example 1Y, (S)-7-(4-(2-(5-methyl-1,3,4-oxadiazol-2-yl)phenyl)piperidin-1-yl)-2-(1,3,4-oxadiazol-2-yl)-5-oxa-2-azaspiro[3.4]octane]	0	> 25	0	> 25

The remaining lines, values ahead:

Emax [1] [%]	EC50 [1] [µM]	Emax [2] [%]	EC50 [2] [µM]	SMILES
0	> 25	0	> 25	Fc1ccc(OC[C@H]2CCCO2)c(C2CCN([C@@H]3COC4(C3)CN(c3nnco3)C4)CC2)c1 [Example 2M, (S)-7-(4-(5-fluoro-2-(((R)-tetrahydrofuran-2-yl)methoxy)phenyl)piperidin-1-yl)-2-(1,3,4-oxadiazol-2-yl)-5-oxa-2-azaspiro[3.4]octane]
0	> 25	0	> 25	Fc1ccc(OC[C@H]2CCOC2)c(C2CCN([C@@H]3COC4(C3)CN(c3nncs3)C4)CC2)c1 [Example 5X, (S)-7-(4-(5-fluoro-2-(((S)-tetrahydrofuran-3-yl)methoxy)phenyl)piperidin-1-yl)-2-(1,3,4-thiadiazol-2-yl)-5-oxa-2-azaspiro[3.4]octane]
0	> 25	0	> 25	Fc1ccc(OCc2ncccn2)c(C2CCN([C@@H]3COC4(C3)CN(c3nnco3)C4)CC2)c1 [Example 2I, (S)-7-(4-(5-fluoro-2-(pyrimidin-2-ylmethoxy)phenyl)piperidin-1-yl)-2-(1,3,4-oxadiazol-2-yl)-5-oxa-2-azaspiro[3.4]octane]
0	> 25	0	> 25	Fc1ccc(OC2CC3(COC3)C2)c(C2CCN([C@@H]3COC4(C3)CN(c3nnco3)C4)CC2)c1 [Example 2L, (S)-7-(4-(2-((2-oxaspiro[3.3]heptan-6-yl)oxy)-5-fluorophenyl)piperidin-1-yl)-2-(1,3,4-oxadiazol-2-yl)-5-oxa-2-azaspiro[3.4]octane]
0	> 25	0	> 25	CC1(COc2ccc(F)cc2C2CCN([C@@H]3COC4(C3)CN(c3nncs3)C4)CC2)COC1 [Example 2B, (S)-7-(4-(5-fluoro-2-((3-methyloxetan-3-yl)methoxy)phenyl)piperidin-1-yl)-2-(1,3,4-thiadiazol-2-yl)-5-oxa-2-azaspiro[3.4]octane]
